Reference: patent US20170008888A1 (KYORIN PHARMACEUTICAL CO., LTD., priority 2014, published 2017)

Tests used:
[1] = system: collagen-induced arthritis mouse model; assay: Collagen-induced arthritis (CIA) mouse model: histopathology of tibiofemoral and tarsal/phalangeal joints; format: in vivo, mouse (DBA/1J)
[2] = system: collagen-induced arthritis mouse model; assay: Collagen-induced arthritis (CIA) mouse model: in-life disease score, paw thickness; format: in vivo, mouse (DBA/1J); conditions: for change in group average disease score - mean, Day versus Day 21 (start of treatment): 60 mg/kg PO BID from D21
[3] = system: human fetal lung fibroblasts (HFL-1); assay: TGF-β-induced fibrotic response (α-SMA expression) in HFL-1; format: cell-based; conditions: HFL1, 2 ng/ml TGF-β1, 48 h, Western blot, read-out: Inhibition of α-SMA expression, EC50 (μM), HFL-1
Procedure: Nontransformed, human fetal lung fibroblasts (HFL-1) were obtained from ATCC (Manassas, Va.) and maintained in F12K media containing 10% (v/v) charcoal-dextran treated, heat inactivated FBS (Omega Scientific, Tarzana, Calif.). Primary lung fibroblasts isolated from a patient diagnosed with asthma were obtained from Lonza (Allendale, N.J.) and maintained in FGM-2 fibroblast growth medium (Lonza). Cells were seeded at a density to provide 50-60% confluence after an overnight incubation at 37° C. in a humidified atmosphere at 5% CO2. […] Protein content was determined using the Bio-Rad Dc Protein kit (Bio-Rad Laboratories, Hercules, Calif.), and normalized prior to adding an equal volume of 2× Laemmli sample buffer (Sigma). Proteins in the whole cell lysates were resolved via SDS-PAGE gel electrophoresis, and α-SMA was detected via Western blot analysis using a rabbit anti-human α-SMA polyclonal antibody (Abcam, Cambridge, Mass.). α-SMA signal was normalized to the signal of β-actin as detected using mouse anti-human […] antibody (Cell Signaling Technology). DyLight 680 and 800 conjugated secondary antibodies were used and the infrared signals were detected using the Odyssey Imaging System (LI-COR Biotechnology, Lincoln, Nebr.).

[4] = Group 3 (n=10): 60 mg/kg PO BID D21-D42
[5] = Group 3: 60 mg/kg PO BID D21-D42

Row | Structure (SMILES) | histopathology of hind-limb joints (knee, paw/tarsal), in words ([1]; Day 42, H&E) | Animals with normal tarsal joints (% of total n in group) [1, 4] | Number of animals with normal tarsal joints [1, 4] | Tibiofemoral joint score: cartilage erosion/ulceration [1, 5] | Tibiofemoral joint score: inflammation [1, 5] | Tibiofemoral joint score: periosteal proliferation/erosion [1, 5] | Tibiofemoral joint score: synovial hyperplasia [1, 5] | change in group average disease score - mean, Day versus Day 21 (start of treatment) ([2]; Day 21) | change in group average disease score - mean, Day versus Day 21 (start of treatment) ([2]; Day 24) | change in group average disease score - mean, Day versus Day 21 (start of treatment) ([2]; Day 26) | change in group average disease score - mean, Day versus Day 21 (start of treatment) ([2]; Day 28) | change in group average disease score - mean, Day versus Day 21 (start of treatment) ([2]; Day 31) | change in group average disease score - mean, Day versus Day 21 (start of treatment) ([2]; Day 33) | change in group average disease score - mean, Day versus Day 21 (start of treatment) ([2]; Day 35) | change in group average disease score - mean, Day versus Day 21 (start of treatment) ([2]; Day 37) | change in group average disease score - mean, Day versus Day 21 (start of treatment) ([2]; Day 39) | percent reduction in overall disease and total paw scores ([2]; treatment Day 21-42, Tofacitinib 15 mg/kg BID PO, doses in Table 28) | EC50 [3]
1 | CCOc1cc(C(=O)N2CCC(N3CCCC3)CC2)ccc1Nc1cc2c(cn1)N(C)C(=O)c1ccccc1N2C [Compound 46, 3-(2-Ethoxy-4-(4-(pyrrolidin-1-yl)piperidine-1-carbonyl)phenylamino)-5,11-dimethyl-5H-benzo[e]pyrido[3,4-b][1,4]diazepin-10(11H)-one] | nearly twice as effective as Tofacitinib at protecting the tarsal joints | 70% | 7 | 12.5 | 15.0 | 3.8 | 3.0 | 0.0 | 0.4 | 1.3 | 2.0 | 2.1 | 2.7 | 2.4 | 2.7 | 2.8 | about 55% | 
2 | CCOc1cc(C(=O)N2CCC(N3CCN(C)CC3)CC2)ccc1Nc1cc2c(cn1)N(C)C(=O)c1ccccc1N2C [Compound 61] |  |  |  |  |  |  |  |  |  |  |  |  |  |  |  |  |  | 0.75 to 2.3 µM
